{"source": "patent US20210009914A1", "about": "“NOVEL APPLICATIONS OF PULSED ELECTRIC FIELD AND E-BEAM TECHNOLOGY” (KEMIN INDUSTRIES, INC., priority 2019, published 2021)", "key": {"[1]": {"test_system": "Total Enterobacteriaceae", "test": "Total Enterobacteriaceae count in naturally contaminated broiler feed, products before PEF at reduced additional water (Example 2)", "format": "cell-based", "conditions": "3 kg/T before PEF 5 kV/cm, medium 120 kJ/kg; for Log reduction: vs control of same water level", "experimental": "(§1) Feed materials. Pig feed, naturally contaminated with Enterobacteriaceae, was obtained from Feed Design Lab (the Netherlands). The naturally contaminated pig feed, not treated with an antimicrobial product, was diluted with mash broiler feed obtained from AVEVE until the required contamination level was obtained (Enterobacteriaceae contamination of 4 log cfu/g). After this dilution, the mash feed was mixed intensively to ensure a homogeneous contamination.\n(§2) Application of antimicrobial products. The products were sprayed on a thin layer of the feed (portions of 500 g) by use of a nebulizer. The product Sal CURB® Ba Liquid (lot number: 191111883) was dosed at 6 kg/T. Formic acid 85% (RM00672, lot 20000200403), the main component of Sal CURB Ba Liquid (i.e. 50% formic acid) was dosed at 3 kg/T and 6 kg/T. Sal CURB Ba Liquid also contains a mixture of different surfactants. After treatment, the samples were sent to ELEA GmbH (Quakenbrück, Germany) for PEF treatments.\nPEF treatments. PEF experiments were carried out using the PEFPilot™ System (220V, 50 Hz) at ELEA GmbH (Quakenbrück, Germany) at room temperature. The PEF treatments were performed at 8 days after application of the antimicrobial products. The feed samples were stored at room temperature (20-25° C.) before PEF treatment. Each PEF treatment consisted of at least two replicates. Quantities of 50, 20 and 15 percent additional water (tap-water at room temperature), were added to the feed to prevent the formation of air bubbles, which increase the chance for a dielectric breakdown and arching. Before PEF treatment, the treatment chamber was filled with the feed, the feed was leveled and pressed using a plastic stick. […] Exponential decay pulses with width of 40 microseconds and frequency of 2 Hz were applied. An electric field strength of 5 kV/cm and a specific energetic level of 120 kJ/kg (600 pulses) was applied. The treatment chamber was rinsed after each treatment and pre-cooled in ice-water before new feed samples were added.\nTest setups. The antimicrobial products were always applied on the feed before the PEF treatments. The different quantities of added tap-water were mixed homogeneously in the feed just before the PEF treatments. After the treatments, all feed samples were stored at room temperature.\n(§3) Determination of total Enterobacteriacea level. The total Enterobacteriaceae level (TEC) of the feed samples not treated and treated with the antimicrobial products was determined at 10 days after product treatment. The TEC of the PEF treated samples was determined at 48 h after PEF treatment. Three suspensions of each feed sample were prepared by mixing 10 g of the sample with 90 g of saline and by homogenizing the samples for 60 seconds in a Stomacher. RAPID' Enterobacteriaceae plates (Bio-Rad, 3564004) were inoculated using a spiral plate counter (Eddy Jet, IUL Instruments). The plates were incubated overnight at 37° C. for 24 h. After incubation, the colonies were counted manually, as explained in the Internal Instruction. To obtain accurate results, the minimum number of colonies counted per plate was specified as 10 (a lower number gives less statistically significant results). Values below this limit, at the lowest sample dilution (100 cfu/g), were reported to a value equal to half of this limit (50 cfu/g). The colony-forming units were log-transformed prior to the statistical analyses. The microbiological data were analyzed using the Statgraphics Centurion XVI software (Statpoint Technologies, Inc., Virginia, USA). All data were subjected to one-way ANOVA and differences were separated using the least significant differences procedure. All statements of significance were based on a P-value less than 0.05, unless otherwise specified."}, "[2]": {"test_system": "Total Enterobacteriaceae", "test": "Total Enterobacteriaceae count in naturally contaminated broiler feed, antimicrobial products with/without PEF (Example 1)", "format": "cell-based", "experimental": "as §1\nPEF treatments. PEF experiments were carried out using the PEFPilot™ System (220V, 50 Hz) at ELEA GmbH (Quakenbrück, Germany) at room temperature. The feed was stored at room temperature (20-25° C.) before treatment. An amount of 50 percent additional water (tap-water at room temperature), was added to the feed to prevent the formation of air bubbles, which increase the chance for a dielectric breakdown and arching. Before PEF treatment, the treatment chamber was filled with the feed, the feed was leveled and pressed using a plastic stick. […] Exponential decay pulses with width of 40 microseconds and frequency of 2 Hz were applied. An electric field strength of 5 kV/cm and specific energies of 12 (60 pulses), 120 (600 pulses) and 168 kJ/kg (840 pulses) were applied. The treatment chamber was rinsed after each treatment and pre-cooled in ice-water before new feed samples were added. Each PEF treatment consisted of at least two replicates. The temperature of the feed was measured just after the PEF treatment.\nas §2, with “300” for “500”, “1911110883)” for “191111883)”, “surfactants.” for “surfactants. After treatment, the samples were sent to ELEA GmbH (Quakenbrück, Germany) for PEF treatments.”\nTest setups. The effect of the application of the antimicrobials alone on the naturally contaminated feed was tested in a separate experiment. In a first series of PEF experiments (first trial), the antimicrobial products were sprayed on the feed just after applying the PEF treatments, while for the second series of experiments (second trial) the antimicrobial products were applied on the feed before the PEF treatments.\nas §3, with “products and/or PEF” for “products”, “24” for “10 days after product treatment. The TEC of the PEF treated samples was determined at 48”, “PEF/product treatments.” for “PEF treatment.”, “manually.” for “manually, as explained in the Internal Instruction.”"}}}
{"compound": "O=CO", "note": "[Formic acid]", "values": [{"measurement": "Log (cfu/g)", "setting": "[1]; 15% additional water", "result": "2.83 c Log (cfu/g)"}, {"measurement": "Log reduction", "setting": "[1]; 15% additional water", "result": 1.44, "unit": "log"}, {"measurement": "Log reduction", "setting": "[1]; 15% additional water, listed as formic acid", "result": 1.4, "unit": "log"}, {"measurement": "Log (cfu/g)", "setting": "[1]; 20% additional water", "result": "2.30 d Log (cfu/g)"}, {"measurement": "Log reduction", "setting": "[1]; 20% additional water", "result": 2.20, "unit": "log"}, {"measurement": "Log (cfu/g)", "setting": "[1]; 50% additional water", "result": "2.82 c Log (cfu/g)"}, {"measurement": "Log reduction", "setting": "[1]; 50% additional water", "result": 1.60, "unit": "log"}, {"measurement": "Log (cfu/g)", "setting": "[2]; 3 kg/T applied after PEF 5 kV/cm, high intensity 168 kJ/kg, 50% additional water", "result": "3.34 h Log (cfu/g)"}, {"measurement": "Log reduction", "setting": "[2]; 3 kg/T applied after PEF 5 kV/cm, high intensity 168 kJ/kg, vs no-treatment control", "result": 0.92, "unit": "log"}, {"measurement": "Log (cfu/g)", "setting": "[2]; 3 kg/T applied after PEF 5 kV/cm, low intensity 12 kJ/kg, 50% additional water", "result": "3.94 de Log (cfu/g)"}, {"measurement": "Log reduction", "setting": "[2]; 3 kg/T applied after PEF 5 kV/cm, low intensity 12 kJ/kg, vs no-treatment control", "result": 0.32, "unit": "log"}, {"measurement": "Log (cfu/g)", "setting": "[2]; 3 kg/T applied after PEF 5 kV/cm, medium intensity 120 kJ/kg, 50% additional water", "result": "4.10 ad Log (cfu/g)"}, {"measurement": "Log reduction", "setting": "[2]; 3 kg/T applied after PEF 5 kV/cm, medium intensity 120 kJ/kg, vs no-treatment control", "result": 0.16, "unit": "log"}, {"measurement": "Log (cfu/g)", "setting": "[2]; 3 kg/T applied before PEF 5 kV/cm, high intensity 168 kJ/kg, 50% additional water", "result": "2.95 d Log (cfu/g)"}, {"measurement": "Log reduction", "setting": "[2]; 3 kg/T applied before PEF 5 kV/cm, high intensity 168 kJ/kg, vs no-treatment control", "result": 2.14, "unit": "log"}, {"measurement": "Log (cfu/g)", "setting": "[2]; 3 kg/T applied before PEF 5 kV/cm, medium intensity 120 kJ/kg, 50% additional water", "result": "3.58 c Log (cfu/g)"}, {"measurement": "Log reduction", "setting": "[2]; 3 kg/T applied before PEF 5 kV/cm, medium intensity 120 kJ/kg, vs no-treatment control", "result": 1.51, "unit": "log"}, {"measurement": "Log (cfu/g)", "setting": "[2]; 3 kg/T, no PEF, 50% additional water (Table 5, trial 2)", "result": "4.15 b Log (cfu/g)"}, {"measurement": "Log reduction", "setting": "[2]; 3 kg/T, no PEF, vs no-treatment control (Table 5, trial 2)", "result": 0.94, "unit": "log"}, {"measurement": "Log (cfu/g)", "setting": "[2]; 3 kg/T, product alone, no PEF (Table 3)", "result": "3.80 ab Log (cfu/g)"}, {"measurement": "Log reduction", "setting": "[2]; 3 kg/T, product alone, no PEF, vs untreated control (Table 3)", "result": 0.37, "unit": "log"}, {"measurement": "Log (cfu/g)", "setting": "[2]; 6 kg/T applied after PEF 5 kV/cm, high intensity 168 kJ/kg, 50% additional water", "result": "3.06 i Log (cfu/g)"}, {"measurement": "Log reduction", "setting": "[2]; 6 kg/T applied after PEF 5 kV/cm, high intensity 168 kJ/kg, vs no-treatment control", "result": 1.20, "unit": "log"}, {"measurement": "Log (cfu/g)", "setting": "[2]; 6 kg/T applied after PEF 5 kV/cm, low intensity 12 kJ/kg, 50% additional water", "result": "4.03 ade Log (cfu/g)"}, {"measurement": "Log reduction", "setting": "[2]; 6 kg/T applied after PEF 5 kV/cm, low intensity 12 kJ/kg, vs no-treatment control", "result": 0.23, "unit": "log"}, {"measurement": "Log (cfu/g)", "setting": "[2]; 6 kg/T applied after PEF 5 kV/cm, medium intensity 120 kJ/kg, 50% additional water", "result": "3.71 fg Log (cfu/g)"}, {"measurement": "Log reduction", "setting": "[2]; 6 kg/T applied after PEF 5 kV/cm, medium intensity 120 kJ/kg, vs no-treatment control", "result": 0.55, "unit": "log"}, {"measurement": "Log (cfu/g)", "setting": "[2]; 6 kg/T applied before PEF 5 kV/cm, high intensity 168 kJ/kg, 50% additional water", "result": "1.70 f^ Log (cfu/g)"}, {"measurement": "Log reduction", "setting": "[2]; 6 kg/T applied before PEF 5 kV/cm, high intensity 168 kJ/kg, vs no-treatment control", "result": 3.39, "unit": "log"}, {"measurement": "Log (cfu/g)", "setting": "[2]; 6 kg/T applied before PEF 5 kV/cm, medium intensity 120 kJ/kg, 50% additional water", "result": "2.25 e Log (cfu/g)"}, {"measurement": "Log reduction", "setting": "[2]; 6 kg/T applied before PEF 5 kV/cm, medium intensity 120 kJ/kg, vs no-treatment control", "result": 2.84, "unit": "log"}, {"measurement": "Log (cfu/g)", "setting": "[2]; 6 kg/T, no PEF, 50% additional water (Table 5, trial 2)", "result": "3.55 c Log (cfu/g)"}, {"measurement": "Log reduction", "setting": "[2]; 6 kg/T, no PEF, vs no-treatment control (Table 5, trial 2)", "result": 1.54, "unit": "log"}, {"measurement": "Log (cfu/g)", "setting": "[2]; 6 kg/T, product alone, no PEF (Table 3)", "result": "3.33 b Log (cfu/g)"}, {"measurement": "Log reduction", "setting": "[2]; 6 kg/T, product alone, no PEF, vs untreated control (Table 3)", "result": 0.84, "unit": "log"}]}
